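The compound was tested at five concentrations on cells cultured in 96-well plates, with a 48-hour exposure period. At the TGI there is no net growth.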
How the values were obtained:
Assay in all cases: NCI-60 cell line screen, 48 h
[1] = tested on: NCI-H522 lung
[2] = tested on: HOP-92 NSCLC
[3] = tested on: U251 CNS
[4] = tested on: ACHN renal
[5] = tested on: SK-OV-3 ovarian
[6] = tested on: SK-MEL-2 melanoma
[7] = tested on: A549 NSCLC
[8] = tested on: MDA-MB-231 breast
[9] = tested on: MDA-N
[10] = tested on: SF-268 CNS
[11] = tested on: SNB-75 CNS
[12] = tested on: KM12 colon
[13] = tested on: SF-295 CNS
[14] = tested on: HCT-15 colon
[15] = tested on: PC-3 prostate
[16] = tested on: NCI/ADR-RES ovarian
[17] = tested on: UO-31 renal
[18] = tested on: CAKI-1 renal
[19] = tested on: MCF7 breast
[20] = tested on: SNB-19 CNS
[21] = tested on: HT29 colon
[22] = tested on: SN12C renal
[23] = tested on: SK-MEL-28 melanoma
[24] = tested on: MOLT-4 leukemia
[25] = tested on: EKVX NSCLC
[26] = tested on: HOP-62 NSCLC
[27] = tested on: DU-145 prostate
[28] = tested on: HS 578T breast
[29] = tested on: COLO 205 colon
[30] = tested on: OVCAR-5 ovarian
[31] = tested on: A498 renal
[32] = tested on: LOX IMVI melanoma
[33] = tested on: UACC-257 melanoma
[34] = tested on: TK-10 renal
[35] = tested on: OVCAR-8 ovarian
[36] = tested on: NCI-H226 lung
[37] = tested on: OVCAR-4 ovarian
[38] = tested on: SK-MEL-5 melanoma
[39] = tested on: MALME-3M melanoma
[40] = tested on: HCT-116 colon
[41] = tested on: UACC-62 melanoma
[42] = tested on: M14 melanoma
[43] = tested on: K-562 leukemia
[44] = tested on: NCI-H23 lung
[45] = tested on: MDA-MB-435
[46] = tested on: BT-549 breast
[47] = tested on: SR leukemia
[48] = tested on: T-47D breast
[49] = tested on: 786-0 renal
[50] = tested on: SW-620 colon
[51] = tested on: HCC-2998 colon
[52] = tested on: IGROV1 ovarian
[53] = tested on: HL-60(TB) leukemia
[54] = tested on: SF-539 CNS
[55] = tested on: CCRF-CEM leukemia
[56] = tested on: RXF 393 renal
[57] = tested on: OVCAR-3 ovarian
[58] = tested on: NCI-H460 lung
[59] = tested on: RPMI-8226 leukemia

Cc1ccc2c3c1[C@@H]1O[C@@H]1c1cccc(c1-3)[C@@H]1O[C@H]21
TGI [1]: 29.6 µM | TGI [2]: 36.8 µM | TGI [3]: 28.9 µM | TGI [4]: 31 µM | TGI [5]: 63.9 µM | TGI [6]: 33.7 µM | TGI [7]: 34.1 µM | TGI [8]: 36.2 µM | TGI [9]: 30.5 µM | TGI [10]: 34.1 µM | TGI [11]: 15.7 µM | TGI [12]: 28.8 µM | TGI [13]: 31.4 µM | TGI [14]: 36.7 µM | TGI [15]: 30.7 µM | TGI [16]: 90 µM | TGI [17]: 27.7 µM | TGI [18]: 32.9 µM | TGI [19]: 34.8 µM | TGI [20]: 49.9 µM | TGI [21]: 23.4 µM | TGI [22]: 25.5 µM | TGI [23]: 23.5 µM | TGI [24]: 12.8 µM | TGI [25]: 32.3 µM | TGI [26]: 32 µM | TGI [27]: 22.9 µM | TGI [28]: 60.2 µM | TGI [29]: 33.9 µM | TGI [30]: 34 µM | TGI [31]: 43.6 µM | TGI [32]: 7.38 µM | TGI [33]: 33 µM | TGI [34]: 38.5 µM | TGI [35]: 40.5 µM | TGI [36]: 84.7 µM | TGI [37]: 33.3 µM | TGI [38]: 30.6 µM | TGI [39]: 31 µM | TGI [40]: 27.7 µM | TGI [41]: 40.2 µM | TGI [42]: 25.1 µM | TGI [43]: 37.5 µM | TGI [44]: 31.8 µM | TGI [45]: 31.4 µM | TGI [46]: 32.7 µM | TGI [47]: 59.3 µM | TGI [48]: 20.9 µM

CCOC(=O)c1sc2nc1CSc1sc(=S)sc1SCc1nc(sc1C(=O)OCC)-c1nc(c(C(=O)OCC)s1)CSc1sc(=S)sc1SCc1nc-2sc1C(=O)OCC
TGI [1]: > 10 µM | TGI [2]: > 10 µM | TGI [3]: > 10 µM | TGI [4]: > 10 µM | TGI [5]: > 10 µM | TGI [6]: > 10 µM | TGI [7]: > 10 µM | TGI [8]: > 10 µM | TGI [49]: > 10 µM | TGI [9]: > 10 µM | TGI [50]: > 10 µM | TGI [10]: > 10 µM | TGI [11]: > 10 µM | TGI [12]: > 10 µM | TGI [13]: > 10 µM | TGI [51]: > 10 µM | TGI [14]: > 10 µM | TGI [15]: > 10 µM | TGI [52]: > 10 µM | TGI [16]: > 10 µM | TGI [53]: > 10 µM | TGI [17]: > 10 µM | TGI [54]: > 10 µM | TGI [18]: > 10 µM | TGI [19]: > 10 µM | TGI [20]: > 10 µM | TGI [21]: > 10 µM | TGI [22]: > 10 µM | TGI [23]: > 10 µM | TGI [24]: > 10 µM | TGI [25]: > 10 µM | TGI [26]: > 10 µM | TGI [28]: > 10 µM | TGI [29]: > 10 µM | TGI [30]: > 10 µM | TGI [32]: > 10 µM | TGI [33]: > 10 µM | TGI [34]: > 10 µM | TGI [35]: > 10 µM | TGI [37]: > 10 µM | TGI [55]: > 10 µM | TGI [56]: > 10 µM | TGI [38]: > 10 µM | TGI [39]: > 10 µM | TGI [40]: > 10 µM | TGI [41]: > 10 µM | TGI [43]: > 10 µM | TGI [44]: > 10 µM | TGI [45]: > 10 µM | TGI [46]: > 10 µM | TGI [57]: > 10 µM | TGI [58]: > 10 µM | TGI [47]: > 10 µM | TGI [59]: > 10 µM | TGI [48]: > 10 µM

— PubChem BioAssay (NCI)
